Data as given in PMC6934184, “Selective DNA-PKcs inhibition extends the therapeutic index of localized radiotherapy and chemotherapy” (The Journal of Clinical Investigation, 2019).

Molecular target: T1, MAP3K5 (ASK1) (Homo sapiens, UniProt Q99683)
T1 construct: purchased Thermo Fisher Scientific (Life Technologies) SelectScreen
Assay: SelectScreen LanthaScreen
Format: binding
Conditions: read-out: % displacement
Summary of the method: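 NU5455 was profiled across the SelectScreen Broad panel of kinase activity and binding assays. Z'LYTE reactions such as CSF1R ran at apparent Km ATP, while the Adapta CAMK1 assay used ATP listed as 10. Values are given as percent.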

T1 sequence (Q99683 whole entry): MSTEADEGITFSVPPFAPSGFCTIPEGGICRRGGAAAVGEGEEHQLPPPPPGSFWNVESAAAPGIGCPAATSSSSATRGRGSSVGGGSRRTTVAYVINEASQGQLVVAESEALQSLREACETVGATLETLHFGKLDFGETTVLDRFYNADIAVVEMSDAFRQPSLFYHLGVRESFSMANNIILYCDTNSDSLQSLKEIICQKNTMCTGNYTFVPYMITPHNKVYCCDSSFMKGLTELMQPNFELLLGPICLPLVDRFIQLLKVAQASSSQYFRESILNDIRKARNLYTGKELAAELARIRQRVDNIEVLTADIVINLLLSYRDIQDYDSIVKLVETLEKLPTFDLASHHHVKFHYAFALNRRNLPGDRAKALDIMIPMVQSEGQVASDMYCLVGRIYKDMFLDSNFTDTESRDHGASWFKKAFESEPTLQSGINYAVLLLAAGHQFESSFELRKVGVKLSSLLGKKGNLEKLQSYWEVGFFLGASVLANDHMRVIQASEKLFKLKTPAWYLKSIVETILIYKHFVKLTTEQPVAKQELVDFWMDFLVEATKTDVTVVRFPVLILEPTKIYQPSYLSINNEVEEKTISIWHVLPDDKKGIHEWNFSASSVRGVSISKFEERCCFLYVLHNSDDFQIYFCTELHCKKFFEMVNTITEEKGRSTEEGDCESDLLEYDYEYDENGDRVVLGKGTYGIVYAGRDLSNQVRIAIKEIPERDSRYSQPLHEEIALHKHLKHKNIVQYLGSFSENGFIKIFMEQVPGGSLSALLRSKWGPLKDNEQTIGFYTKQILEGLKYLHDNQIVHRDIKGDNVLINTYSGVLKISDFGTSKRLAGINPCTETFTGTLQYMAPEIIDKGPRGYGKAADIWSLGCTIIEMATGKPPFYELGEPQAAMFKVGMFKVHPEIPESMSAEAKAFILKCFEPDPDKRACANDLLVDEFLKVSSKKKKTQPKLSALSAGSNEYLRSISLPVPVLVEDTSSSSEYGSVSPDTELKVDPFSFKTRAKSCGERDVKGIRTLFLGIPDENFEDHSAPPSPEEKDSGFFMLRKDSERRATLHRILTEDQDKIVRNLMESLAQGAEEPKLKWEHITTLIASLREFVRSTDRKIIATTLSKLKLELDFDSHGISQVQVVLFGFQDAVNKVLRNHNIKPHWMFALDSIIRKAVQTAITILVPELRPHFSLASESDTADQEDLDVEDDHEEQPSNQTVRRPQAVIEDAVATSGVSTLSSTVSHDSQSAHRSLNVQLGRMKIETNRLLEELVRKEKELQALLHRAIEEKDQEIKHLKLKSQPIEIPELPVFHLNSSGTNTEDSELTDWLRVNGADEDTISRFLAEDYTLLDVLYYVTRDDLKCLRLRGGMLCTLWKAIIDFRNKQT

How did the inhibition at 1 µM turn out when `CN(C(=O)CN1CCOCC1)c1ccc2sc3c(-c4cccc5c(=O)cc(N6CC7CCC(C6)O7)oc45)cccc3c2c1` [NU5455] was run?
Its inhibition at 1 µM is 2.3%.
